US9969698B2, “Quinoxalinyl-piperazinamide methods of use” (REXAHN PHARMACEUTICALS, INC., priority 2015, dated 2018)
Marks after values point to notes of the source that are not given here.

Columns and labels:
[1] = target: T1, p68 RNA helicase (Homo sapiens, UniProt P17844); assay: DARTS target identification (thermolysin protection, Western blot); format: cell-based; conditions: MDA-MB-231 cells treated 0.1-10 μM for one hour
T1 construct: made in house
Protocol: MDA-MB-231 cells were plated onto 6 well plates and treated with RX-5902 at various concentrations (0, 0.1, 1 and 10 μM) for one hour. Cells were lysed with p-MER buffer containing protease/phosphatase inhibitors on ice. Cell lysates were treated with thermolysin protease (1:1,500 ratio) for 10 min at RT and the reaction was stopped by addition of 0.5 M EDTA solution. The reaction mixtures were separated on a 10% SDS-PAGE visualized by Coomassie staining. After identifying several candidate proteins from mass spectrometry sequencing analysis, the protein which interacted with RX-5902 was confirmed by western blot analysis.
Protein mix or cell lysates were separated by SDS-PAGE and transferred to PVDF membrane. The membrane was blocked by blocking buffer (1×TBST containing 5% BSA) at room temperature for 1 hour. After a brief wash, the membrane was incubated with primary antibody in blocking buffer at 4° C. overnight. […]
Well-established target identification method DARTS assay (Lomenick et al., Proc. Natl. Acad. Sci. USA, 106:21984-21989 (2009)) was used to find target proteins that would interact with RX-5902 in cancer cells. […] To identify this protected protein, the bands along with control were sliced out, and analyzed with LC-MS/MS by ProtTech (Phoenixville, Pa.). […]

[2] = tested on: ovarian tumor xenograft (SK-OV3); assay: Ovarian tumor xenograft model; format: in vivo, mice; conditions: oral, 5ON/2OFF
Excerpt: The efficacy of RX-5902 in human cancer xenograft mouse models is examined. Female nude mice (nu/nu, Harlan or CRL: NU(NCr)-Foxn1^nu, Charles River), 9-10 weeks old, with a body weight (BW) range of 15-30 g on day 1 of the study, are fed ad libitum water (reverse osmosis, 1 ppm C1), and NIH 31 Modified and Irradiated Lab Diet® consisting of 18.0% crude protein, 5.0% crude fat, and 5.0% crude fiber. The mice are housed on irradiated Enrich-o'Cobs™ Laboratory Animal Bedding in static microisolators on a 12-hour light cycle at 20-22° C. (68-72° F.) and 40-60% humidity. […]
(§1) The cells are harvested during exponential growth and re-suspended with phosphate buffered saline. Each test animal receives a subcutaneous (s.c.) injection of 5×10^6 tumor cells into the right flank and tumor growth is monitored as the average tumor size approaches the target range of 80-300 mm^3. […] Tumors and body weights are measured regularly until the study is terminated.
(§2) Tumors are measured in two dimensions using calipers, and volume is calculated using the formula: […]
Treatment efficacy is determined using data from Day 15. The MTV (n), the median tumor volume for the number of animals, n, on Day 15, is determined for each group. […]
Animals are monitored individually for tumor growth until Day 71. […] The time to endpoint (TTE) for each mouse is calculated with the following equation: […]

[3] = tested on: MDA-MB-231 cells; assay: Cytotoxicity of RX-5902 after p68 knock-down with p68-siRNA; format: cell-based, human; conditions: IC50 concentration of RX-5902
[4] = tested on: human ovarian tumor xenografts (A-2780); assay: Cisplatin-resistant ovarian cancer xenograft model; format: in vivo, mice; conditions: oral
Excerpt: The efficacy of RX-5902 in human cancer xenograft mouse models is examined. Female nude mice (nu/nu, Harlan or CRL: NU(NCr)-Foxn1^nu, Charles River), 9-10 weeks old, with a body weight (BW) range of 15-30 g on day 1 of the study, are fed ad libitum water (reverse osmosis, 1 ppm C1), and NIH 31 Modified and Irradiated Lab Diet® consisting of 18.0% crude protein, 5.0% crude fat, and 5.0% crude fiber. The mice are housed on irradiated Enrich-o'Cobs™ Laboratory Animal Bedding in static microisolators on a 12-hour light cycle at 20-22° C. (68-72° F.) and 40-60% humidity. The study complies with the recommendations of the Guide for, Care and Use of Laboratory Animals with respect to restraint, husbandry, surgical procedures, feed and fluid regulation, and veterinary care.
Various human tumor cell lines (e.g., HCT116, HT29, H460, H69, Caki-1, CaSki, MiaPaca2, BxPC3 and Colo 205 cells [ATCC, Manassas, Va., USA]) are cultured according to ATCC's instruction. […]
as §1, §2
Treatment efficacy is determined using data from Day 15. The MTV (n), the median tumor volume for the number of animals, n, on Day 15, is determined for each group. Percent tumor growth inhibition (% TGI) is defined as the difference between the MTV of the designated control group (vehicle administration) and the MTV of the drug-treated group, expressed as a percentage of the MTV of the control group: % TGI=[1−(MTVdrug treated/MTVcontrol)]×100 The data set for TGI analysis includes all animals in a group, except those that die due to treatment-related (TR) or non-treatment-related (NTR) causes. […]
Animals are monitored individually for tumor growth until Day 71. […]

T1 sequence (P17844 whole entry): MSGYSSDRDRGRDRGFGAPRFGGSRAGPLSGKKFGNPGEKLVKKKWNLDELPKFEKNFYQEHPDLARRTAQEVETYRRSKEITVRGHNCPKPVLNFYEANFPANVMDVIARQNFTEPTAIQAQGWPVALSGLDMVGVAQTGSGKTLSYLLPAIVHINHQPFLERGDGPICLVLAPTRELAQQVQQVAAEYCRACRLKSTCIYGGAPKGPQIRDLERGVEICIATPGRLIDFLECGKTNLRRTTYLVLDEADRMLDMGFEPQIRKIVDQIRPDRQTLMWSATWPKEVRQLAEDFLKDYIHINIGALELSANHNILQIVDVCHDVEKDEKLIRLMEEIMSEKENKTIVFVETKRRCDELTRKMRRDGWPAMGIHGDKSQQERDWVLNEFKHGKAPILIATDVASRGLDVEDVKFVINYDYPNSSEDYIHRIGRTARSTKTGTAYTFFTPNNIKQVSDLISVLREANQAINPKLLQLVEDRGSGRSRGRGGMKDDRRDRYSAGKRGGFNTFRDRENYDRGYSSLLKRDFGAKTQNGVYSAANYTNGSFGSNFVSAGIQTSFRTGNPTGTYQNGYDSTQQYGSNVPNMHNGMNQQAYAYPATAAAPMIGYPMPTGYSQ

In the case of `COc1cc(OC)cc(N2CCN(C(=O)Nc3nc4cc(F)ccc4nc3OC)CC2)c1` [RX-5902, 4-(3,5-dimethoxyphenyl)-N-(7-fluoro-3-methoxyquinoxalin-2-yl)piperazine-1-carboxamide], the “protection of ~60 kDa band (p68 RNA helicase) from protease” value [1] is reported as “protected from the protease cleavage”, the TGD % ([2]; 40 mg/kg) is reported as 6%^ and the TGD % ([2]; 70 mg/kg) is reported as 49%^. The “cytotoxic effect in p68-siRNA-transfected cells” value [3] was “protected MDA-MB-231 cells from the cytotoxic effects”, the TGI % ([4]; 160 mg/kg QWK) was 43%* and the TGI % ([4]; 320 mg/kg QWK) was 43%*. For the same compound, the TGI % ([4]; 600 mg/kg QWK) was 75%*.
